Test results reported in article PMC7583830 (Molecules, 2020).
“And” between values parts separate entries of the source, which are not always exact repeats. Equal values may be shown once. Read-outs that look alike come from different tables or passages of the source. Where a SMILES comes first, the peptide text is derived from it. [ ]: non-standard residue; d: D form. The star is where a group is joined. DOTA = O=C(O)CN1CCN(CC(=O)O)CCN(CC(=O)*)CCN(CC(=O)O)CC1; 1Nal = N[C@@H](Cc1cccc2ccccc12)C(=O)O; NMeNle = CCCC[C@H](NC)C(=O)O

Columns and labels:
[1] = Metabolic stability in vivo and radiometabolites (radio-HPLC of blood, urine, liver, kidney); design: species or system BALB/c mice
Description: (§1) Metabolic biodistribution studies were performed in accordance with the ethical standards of the institution and approved by the Austrian Ministry of Science (BMWFW-66.011/0072-V/3b/2019). These studies were carried out in 5- to 7-week-old female BALB/c mice (n = 3) injected with [^177Lu]Lu-1 via a lateral tail vein. To allow monitoring of the metabolites by radio-HPLC, mice were injected with 30 MBq corresponding to 0.8 nmol total peptide. The mice were euthanized by cervical dislocation after different time points of 10 min, 30 min and 1 h p.i. and the urine and a venous blood sample were collected at the time of sacrifice. Liver and kidneys were dissected and homogenized in 20 mM HEPES buffer pH 7.3 at a ratio of 1:1 (v/v) with an Ultra-Turrax T8 homogenizer (IKA-Werke, Staufen, Germany) for 1 min at RT. Before radio-HPLC analysis, the samples (except urine) were treated with ACN at a ratio of 1:1 (v/v) to precipitate proteins, centrifuged at 2000× g for 2 min and diluted with water at a ratio of 1:1 (v/v). For HPLC analysis of the samples, the analytical HPLC system described above with a flow rate of 1 mL/min was used together with the following optimized water/ACN/0.1% TFA gradient to allow a better separation of [^177Lu]Lu-1 and the different radiometabolites: 0–7 min 1–7% ACN, 7–8 min 7–10% ACN, 8–18 min 10–18% ACN, 18–20 min 18–32% ACN, 20–27 min 32% ACN, 27–37 min […], 37–40 min 80% ACN, 40–40.1 min 80–1% ACN, 40.1–45 min 1% ACN. Urine was measured with the low-sensitivity loop of the radiodetector. The remaining samples were analyzed with the high-sensitivity loop due to the lower radioactivity present in blood, liver and kidney homogenate. To quantify the percentage of intact [^177Lu]Lu-1 and [^177Lu]Lu-M1 showing some overlap in the radiochromatogram when using the high-sensitivity loop of the radiodetector, the two radiopeptides were co-injected at different known ratios to enable a more accurate separation and integration of the two peaks (see supporting Figure S4). Mice from the metabolic biodistribution studies were subjected to a further dissection of all remaining tissues (blood, lung, heart, femur, spleen, muscle, intestine, pancreas and stomach). All organs, also including liver and kidneys, were weighed, and their radioactivity was measured in the gamma counter together with a standard and the residual body. To quantify the uptake of radioactivity in liver and kidneys, a part of liver and kidney homogenate was measured in the gamma counter to extrapolate the radioactivity for the whole organ.

[2] = Biodistribution in BALB/c mice; format: in vivo; conditions: for tissue uptake at 0.5 h / tissue uptake at 1 h / tissue uptake at 10 min: female, BALB/c, mouse, iv, total radioactivity; for tissue uptake at 0.5 h: 30 min p.i.; for tissue uptake at 1 h: 1 h p.i.
Description: as §1

[3] = Stability in rat liver homogenate; format: in vitro ADME
Description: (§2) In vitro stability studies for the characterization of the metabolic stability of the radiolabeled peptide analogs in human serum were carried out with [^177Lu]Lu-1, [^177Lu]Lu-M1, [^177Lu]Lu-M2, [^177Lu]Lu-M3 and [^177Lu]Lu-M4 (n = 2). Additional stability studies in rat liver and kidney homogenates were performed for [^177Lu]Lu-1 (n = 2). Tissue homogenates were prepared from dissected organs by homogenization for 1 min at RT (IKA-Werke, Staufen, Germany) in 20 mM HEPES buffer pH 7.3 (30% v/v). The radioligands were incubated in the different media at a concentration of 500 pmol/mL (corresponding to an activity of 6–11 MBq). After incubation at 37 °C at different time points for up to 24 h, a 100 µl sample was taken in duplicates and analyzed by HPLC. Samples obtained from human serum and rat homogenates were treated with ACN at a ratio of 1:1.5 (v/v) to precipitate proteins, centrifuged (14,000 rpm, 2 min, centrifuge 5424, Eppendorf AG, Germany) and diluted with water at a ratio of 1:1 (v/v). A 100 µl aliquot of this solution was injected into the radio HPLC system. The degradation of the radioligand was evaluated based on the radiochemical purity after radiolabeling and the percentage of intact radiopeptide observed during incubation in the different media.

[4] = Stability in fresh human serum (radio-HPLC); format: in vitro ADME; conditions: 24 h incubation, 37 °C
Description: as §2

[5] = Distribution coefficient (logD) in octanol/PBS; format: physicochemical; conditions: octanol/PBS pH 7.4; read-out: logD
Description: The mixture was vigorously vortexed at room temperature over a period of 15 min using a small shaker (MS3 Basic, IKA, Staufen, Germany) with speed of 1500 rpm.

[6] = Stability in rat kidney homogenate; format: in vitro ADME
Description: as §2

[7] = blood, 30 MBq, read-out: uptake in blood
[8] = femur, 30 MBq, read-out: uptake in femur
[9] = heart, 30 MBq, read-out: uptake in heart
[10] = intestine, 30 MBq, read-out: uptake in intestine
[11] = kidneys, 30 MBq, read-out: uptake in kidneys
[12] = liver, 30 MBq, read-out: uptake in liver
[13] = lung, 30 MBq, read-out: uptake in lung
[14] = muscle, 30 MBq, read-out: uptake in muscle
[15] = pancreas, 30 MBq, read-out: uptake in pancreas
[16] = spleen, 30 MBq, read-out: uptake in spleen
[17] = stomach, 30 MBq, read-out: uptake in stomach

CCCC[C@@H](C(=O)N[C@@H](CC(=O)O)C(=O)N[C@@H](Cc1cccc2ccccc12)C(N)=O)N(C)C(=O)[C@H](Cc1c[nH]c2ccccc12)NC(=O)CNC(=O)[C@H](Cc1ccc(O)cc1)NC(=O)[C@@H]1CCCN1C(=O)[C@@H](CCC(=O)O)NC(=O)CN1CCN(CC(=O)O)CCN(CC(=O)O)CCN(CC(=O)O)CC1 [[^177Lu]Lu-1, metal not drawn] ({DOTA}-[dE]PYGW[NMeNle]D[1Nal]-NH2)
total amount of radiometabolites ([1]; blood, 10 min p.i.): 19.5% | total amount of radiometabolites ([1]; blood, 30 min p.i.): 35.9% | percentage of intact radiopeptide / radiometabolite ([1]; blood, 30 min p.i., mice injected i.v. with [177Lu]Lu-1): 64.1% | total amount of radiometabolites ([1]; blood, 60 min p.i.): 43.1% | percentage of intact radiopeptide / radiometabolite ([1]; blood, 60 min p.i., mice injected i.v. with [177Lu]Lu-1): 56.9% | percentage of intact radiopeptide / radiometabolite ([1]; kidney homogenate soluble phase, 10 min p.i.): 29.7% | percentage of intact radiopeptide / radiometabolite ([1]; kidney, 30 min p.i.): 18.0% | percentage of intact radiopeptide / radiometabolite ([1]; kidney, 60 min p.i.): 7.0% | intact radiopeptide ([1]; kidneys and urine, studied time points): < 30% | percentage of intact radiopeptide / radiometabolite ([1]; liver homogenate soluble phase, 10 min p.i.): 71.9% | percentage of intact radiopeptide / radiometabolite ([1]; liver, 30 min p.i.): 53.9% | percentage of intact radiopeptide / radiometabolite ([1]; liver, 60 min p.i.): 47.7% | percentage of intact radiopeptide / radiometabolite ([1]; urine, 10 min p.i.): 29.1% and 29% | percentage of intact radiopeptide / radiometabolite ([1]; urine, 30 min p.i.): 19.4% | percentage of intact radiopeptide / radiometabolite ([1]; urine, 60 min p.i.): 18% | whole body activity ([2]; 10 min p.i.): 61.78 % IA | whole body activity ([2]; 1 h after injection): 12.27 % IA | tissue uptake at 0.5 h [2, 7]: 5.08 %ID/g | tissue uptake at 1 h [2, 7]: 2.05 %ID/g | tissue uptake at 10 min ([2]; blood, 10 min p.i., 30–40 MBq, 0.8 nmol, read-out: uptake in blood): 17.8 %ID/g | tissue uptake at 10 min ([2]; femur, 30 MBq, 10 min p.i., read-out: uptake in femur): 5.97 %ID/g | tissue uptake at 0.5 h [2, 8]: 1.28 %ID/g | tissue uptake at 1 h [2, 8]: 0.52 %ID/g | tissue uptake at 10 min ([2]; heart, 30 MBq, 10 min p.i., read-out: uptake in heart): 7.13 %ID/g | tissue uptake at 0.5 h [2, 9]: 2.72 %ID/g | tissue uptake at 1 h [2, 9]: 0.99 %ID/g | tissue uptake at 10 min ([2]; intestine, 30 MBq, 10 min p.i., read-out: uptake in intestine): 2.63 %ID/g | tissue uptake at 0.5 h [2, 10]: 1.61 %ID/g | tissue uptake at 1 h [2, 10]: 1.02 %ID/g | tissue uptake at 10 min ([2]; kidneys, 30 MBq, 10 min p.i., read-out: uptake in kidneys): 14.5 %ID/g | tissue uptake at 0.5 h [2, 11]: 10.8 %ID/g | tissue uptake at 1 h [2, 11]: 7.01 %ID/g | tissue uptake at 10 min ([2]; liver, 30 MBq, 10 min p.i., read-out: uptake in liver): 5.37 %ID/g | tissue uptake at 0.5 h [2, 12]: 2.95 %ID/g | tissue uptake at 1 h [2, 12]: 1.26 %ID/g | tissue uptake at 10 min ([2]; lung, 30 MBq, 10 min p.i., read-out: uptake in lung): 17.4 %ID/g | tissue uptake at 0.5 h [2, 13]: 5.03 %ID/g | tissue uptake at 1 h [2, 13]: 1.95 %ID/g | tissue uptake at 10 min ([2]; muscle, 30 MBq, 10 min p.i., read-out: uptake in muscle): 2.56 %ID/g | tissue uptake at 0.5 h [2, 14]: 1.03 %ID/g | tissue uptake at 1 h [2, 14]: 0.36 %ID/g | tissue uptake at 10 min ([2]; pancreas, 30 MBq, 10 min p.i., read-out: uptake in pancreas): 3.39 %ID/g | tissue uptake at 0.5 h [2, 15]: 1.76 %ID/g | tissue uptake at 1 h [2, 15]: 0.84 %ID/g | tissue uptake at 10 min ([2]; spleen, 30 MBq, 10 min p.i., read-out: uptake in spleen): 3.7 %ID/g | tissue uptake at 0.5 h [2, 16]: 2 %ID/g | tissue uptake at 1 h [2, 16]: 0.79 %ID/g | tissue uptake at 10 min ([2]; stomach, 30 MBq, 10 min p.i., read-out: uptake in stomach): 3.36 %ID/g | tissue uptake at 0.5 h [2, 17]: 2.29 %ID/g | tissue uptake at 1 h [2, 17]: 1.39 %ID/g | washout at 1 h versus 10 min p.i. ([2]; non-excretory organs (blood, lung, heart, femur, spleen and muscle)): 79–91% | percentage decrease of radioactivity at 1 h versus 10 min p.i. ([2]; pancreas): 75% | percentage decrease of radioactivity at 1 h versus 10 min p.i. ([2]; stomach): 59% | intact radiopeptide ([3]; 30 min): 83.6 ± 0.2% and 84% | intact radiopeptide ([3]; 2 h): 52.9 ± 2.0% and > 50% | intact radiopeptide ([3]; 24 h): 49.3 ± 1.7% | intact radiopeptide ([3]; up to 20 min incubation): > 90% | intact radiopeptide [4]: 96.2 ± 1.3% | logD [5]: -1.96 ± 0.07 | intact radiopeptide ([6]; 20 min): 65.6 ± 2.8% | intact radiopeptide ([6]; 30 min): 43.9 ± 1.0% and 44% | intact radiopeptide ([6]; 2 h): < 5% | intact radiopeptide ([6]; 24 h): < 1%
